Experimental data taken from the NIST ThermoML archive (doi:10.1016/j.fluid.2015.06.041).
Numbers after ± are expanded uncertainties.

Assay: xn = mol fraction of the nth substance listed
Conditions: 101 kPa, Liquid; for viscosity: Capillary tube (Ostwald / Ubbelohde) method; for speed of sound: Frequency=2 MHz, Linear variable-path acoustic interferometer; for mass density: Vibrating tube method

NCCO [2-aminoethan-1-ol] + C1COCCO1
Conditions | mass density, 298.15 K [kg/m3] | mass density, 308.15 K [kg/m3] | mass density, 318.15 K [kg/m3] | speed of sound, 298.15 K [m/s] | viscosity, 298.15 K [mPa·s] | viscosity, 308.15 K [mPa·s] | viscosity, 318.15 K [mPa·s]
x2 = 0 | 1011.79 ± 0.24 | 1004.68 ± 0.23 | 998.15 ± 0.23 | 1716.8 ± 2 | 18.95 ± 0.58 | 11.96 ± 0.37 | 7.913 ± 0.24
x2 = 0.0597 | 1015.53 ± 0.23 | 1007.5 ± 0.22 | 1000.35 ± 0.22 | 1696.8 ± 2 | 16.05 ± 0.49 | 10.32 ± 0.32 | 6.94 ± 0.21
x2 = 0.1251 | 1018.05 ± 0.21 | 1010.07 ± 0.21 | 1001.77 ± 0.2 | 1677.7 ± 1.9 | 13.39 ± 0.41 | 8.772 ± 0.27 | 6.01 ± 0.18
x2 = 0.1969 | 1020.39 ± 0.2 | 1011.65 ± 0.19 | 1003.06 ± 0.19 | 1654.2 ± 1.9 | 10.97 ± 0.34 | 7.34 ± 0.23 | 5.132 ± 0.16
x2 = 0.276 | 1022.47 ± 0.18 | 1013.21 ± 0.18 | 1004.08 ± 0.17 | 1626.7 ± 1.8 | 8.798 ± 0.27 | 6.031 ± 0.18 | 4.321 ± 0.13
x2 = 0.3639 | 1024.23 ± 0.17 | 1014.47 ± 0.16 | 1004.75 ± 0.16 | 1593.6 ± 1.8 | 6.892 ± 0.21 | 4.851 ± 0.15 | 3.555 ± 0.11
x2 = 0.4618 | 1025.64 ± 0.15 | 1015.23 ± 0.15 | 1004.92 ± 0.14 | 1557.5 ± 1.7 | 5.249 ± 0.16 | 3.804 ± 0.12 | 2.867 ± 0.088
x2 = 0.5716 | 1026.41 ± 0.14 | 1015.49 ± 0.14 | 1005.06 ± 0.13 | 1517.9 ± 1.7 | 3.868 ± 0.12 | 2.898 ± 0.089 | 2.255 ± 0.069
x2 = 0.6958 | 1027.09 ± 0.13 | 1015.74 ± 0.12 | 1004.96 ± 0.12 | 1471.8 ± 1.6 | 2.739 ± 0.084 | 2.132 ± 0.065 | 1.719 ± 0.053
x2 = 0.8373 | 1027.58 ± 0.12 | 1016.22 ± 0.12 | 1005.1 ± 0.11 | 1417.1 ± 1.5 | 1.849 ± 0.056 | 1.506 ± 0.046 | 1.266 ± 0.039

NCCN [ethane-1,2-diamine] + C1COCCO1
Conditions | mass density, 298.15 K [kg/m3] | mass density, 308.15 K [kg/m3] | mass density, 318.15 K [kg/m3] | speed of sound, 298.15 K [m/s] | viscosity, 298.18 K [mPa·s] | viscosity, 308.15 K [mPa·s] | viscosity, 318.15 K [mPa·s]
x2 = 0 | 894.79 ± 0.23 | 885.63 ± 0.23 | 867.62 ± 0.24 | 1670.8 ± 2 | 1.276 ± 0.039 | 1.107 ± 0.034 | 0.9445 ± 0.029
x2 = 0.08 | 907.17 ± 0.22 | 897.75 ± 0.23 | 880.1 ± 0.23 | 1625.9 ± 1.9 | 1.263 ± 0.039 | 1.092 ± 0.034 | 0.9318 ± 0.029
x2 = 0.1636 | 919.48 ± 0.21 | 909.85 ± 0.21 | 892.74 ± 0.21 | 1585.3 ± 1.8 | 1.25 ± 0.038 | 1.078 ± 0.033 | 0.9205 ± 0.028
x2 = 0.2511 | 931.76 ± 0.19 | 921.06 ± 0.19 | 905.51 ± 0.2 | 1546.2 ± 1.8 | 1.239 ± 0.038 | 1.066 ± 0.033 | 0.9111 ± 0.028
x2 = 0.3428 | 944.28 ± 0.18 | 934.33 ± 0.18 | 918.46 ± 0.18 | 1506.8 ± 1.7 | 1.228 ± 0.038 | 1.053 ± 0.032 | 0.9021 ± 0.028
x2 = 0.385 | 949.92 ± 0.17 | 939.89 ± 0.17 | 924.35 ± 0.17 | 1488.8 ± 1.7 | 1.223 ± 0.037 | 1.048 ± 0.032 | 0.8983 ± 0.028
x2 = 0.5399 | 970.35 ± 0.15 | 959.96 ± 0.15 | 945.42 ± 0.15 | 1428.4 ± 1.6 | 1.206 ± 0.037 | 1.033 ± 0.032 | 0.8929 ± 0.027
x2 = 0.6461 | 984.1 ± 0.1 | 973.48 ± 0.14 | 959.55 ± 0.14 | 1395.1 ± 1.6 | 1.197 ± 0.037 | 1.026 ± 0.031 | 0.8913 ± 0.027
x2 = 0.7578 | 998.37 ± 0.13 | 987.59 ± 0.13 | 974.27 ± 0.13 | 1369.6 ± 1.5 | 1.189 ± 0.036 | 1.019 ± 0.031 | 0.8918 ± 0.027
x2 = 0.8756 | 1013.03 ± 0.12 | 1002.04 ± 0.12 | 989.43 ± 0.12 | 1353.7 ± 1.5 | 1.182 ± 0.036 | 1.016 ± 0.031 | 0.8902 ± 0.027
